{"source": "patent US20240124479A1", "about": "“PYRIMIDINE CARBOXAMIDE COMPOUND AND USE THEREOF” (SHANGHAI MEIYUE BIOTECH DEVELOPMENT CO. LTD, priority 2020, published 2024)", "key": {"[1]": {"molecular_target": "CYP 2C19 (Homo sapiens (Human), UniProt P33261)", "sequence (P33261 whole entry)": "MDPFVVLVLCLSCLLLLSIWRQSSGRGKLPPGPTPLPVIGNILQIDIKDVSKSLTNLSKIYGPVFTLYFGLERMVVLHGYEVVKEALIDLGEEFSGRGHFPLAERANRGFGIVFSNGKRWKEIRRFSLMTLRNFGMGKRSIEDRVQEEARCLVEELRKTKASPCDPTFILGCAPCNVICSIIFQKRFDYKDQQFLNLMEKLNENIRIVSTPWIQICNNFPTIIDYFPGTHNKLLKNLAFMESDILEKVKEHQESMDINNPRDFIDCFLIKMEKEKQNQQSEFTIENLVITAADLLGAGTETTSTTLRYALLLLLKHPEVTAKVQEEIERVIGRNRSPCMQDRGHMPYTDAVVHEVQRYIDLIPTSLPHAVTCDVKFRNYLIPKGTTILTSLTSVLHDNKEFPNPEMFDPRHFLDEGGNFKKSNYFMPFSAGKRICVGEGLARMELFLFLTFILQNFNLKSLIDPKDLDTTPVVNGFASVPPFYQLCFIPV", "assay": "CYP enzyme inhibitory activity IC50 assay (cocktail method), 2C19", "type": "in vitro ADME", "details": "microsomes 0.1 mg/mL, probe Mephenytoin", "from_the_text": "(§1) […]. […] […]."}, "[2]": {"assay": "In vitro liver microsome stability, overall statement", "type": "in vitro ADME", "details": "human, mouse, rat liver microsomes; result in words", "method": "(§2) PBS Buffer was 50 mM K2HPO4 buffer."}, "[3]": {"molecular_target": "CYP 1A2 (Homo sapiens (Human), UniProt P05177)", "sequence (P05177 whole entry)": "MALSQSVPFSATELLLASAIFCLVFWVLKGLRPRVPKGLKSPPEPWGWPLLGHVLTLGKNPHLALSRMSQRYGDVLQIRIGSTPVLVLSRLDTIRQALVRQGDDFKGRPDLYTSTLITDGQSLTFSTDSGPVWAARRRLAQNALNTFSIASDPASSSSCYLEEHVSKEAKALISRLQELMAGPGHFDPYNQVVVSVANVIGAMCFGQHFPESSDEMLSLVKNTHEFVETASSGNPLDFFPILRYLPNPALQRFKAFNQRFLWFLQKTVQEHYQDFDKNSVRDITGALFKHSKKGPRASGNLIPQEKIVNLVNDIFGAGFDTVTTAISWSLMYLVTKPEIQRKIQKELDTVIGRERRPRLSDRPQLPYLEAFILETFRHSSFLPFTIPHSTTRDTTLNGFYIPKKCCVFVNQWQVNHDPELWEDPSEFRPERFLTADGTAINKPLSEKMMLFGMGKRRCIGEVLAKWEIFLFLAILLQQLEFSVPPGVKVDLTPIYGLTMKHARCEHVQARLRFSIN", "assay": "CYP enzyme inhibitory activity IC50 assay (cocktail method), 1A2", "type": "in vitro ADME", "details": "microsomes 0.1 mg/mL, probe Phenacetin", "from_the_text": "as §1"}, "[4]": {"assay": "In vitro liver microsome stability assay, human", "type": "in vitro ADME", "details": "liver microsomes, read-out: T1/2 Human", "method": "as §2"}, "[5]": {"tested_on": "CYP enzymes", "assay": "CYP enzyme inhibition, overall statement on tested CYP enzymes", "type": "in vitro ADME", "details": "1A2, 2C9, 2C19, 2D6, 3A4; result in words", "from_the_text": "as §1"}, "[6]": {"molecular_target": "CYP 2C9 (Homo sapiens (Human), UniProt P11712)", "sequence (P11712 whole entry)": "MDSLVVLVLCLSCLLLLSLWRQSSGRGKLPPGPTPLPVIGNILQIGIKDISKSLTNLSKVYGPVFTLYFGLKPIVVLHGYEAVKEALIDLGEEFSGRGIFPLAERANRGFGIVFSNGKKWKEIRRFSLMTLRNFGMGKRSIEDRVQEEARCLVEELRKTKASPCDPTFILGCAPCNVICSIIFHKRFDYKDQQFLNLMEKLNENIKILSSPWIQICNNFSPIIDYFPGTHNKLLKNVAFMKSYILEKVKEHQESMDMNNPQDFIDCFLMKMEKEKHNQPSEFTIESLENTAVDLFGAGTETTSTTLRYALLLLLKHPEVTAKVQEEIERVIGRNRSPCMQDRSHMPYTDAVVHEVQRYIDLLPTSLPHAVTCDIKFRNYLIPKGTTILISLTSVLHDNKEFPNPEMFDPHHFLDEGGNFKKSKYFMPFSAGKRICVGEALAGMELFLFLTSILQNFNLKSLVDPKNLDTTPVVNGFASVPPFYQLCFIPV", "assay": "CYP enzyme inhibitory activity IC50 assay (cocktail method), 2C9", "type": "in vitro ADME", "details": "microsomes 0.1 mg/mL, probe Diclofenac", "from_the_text": "as §1"}, "[7]": {"molecular_target": "CYP3A4 (Homo sapiens, UniProt P08684)", "sequence (P08684 2-503 limits assumed)": "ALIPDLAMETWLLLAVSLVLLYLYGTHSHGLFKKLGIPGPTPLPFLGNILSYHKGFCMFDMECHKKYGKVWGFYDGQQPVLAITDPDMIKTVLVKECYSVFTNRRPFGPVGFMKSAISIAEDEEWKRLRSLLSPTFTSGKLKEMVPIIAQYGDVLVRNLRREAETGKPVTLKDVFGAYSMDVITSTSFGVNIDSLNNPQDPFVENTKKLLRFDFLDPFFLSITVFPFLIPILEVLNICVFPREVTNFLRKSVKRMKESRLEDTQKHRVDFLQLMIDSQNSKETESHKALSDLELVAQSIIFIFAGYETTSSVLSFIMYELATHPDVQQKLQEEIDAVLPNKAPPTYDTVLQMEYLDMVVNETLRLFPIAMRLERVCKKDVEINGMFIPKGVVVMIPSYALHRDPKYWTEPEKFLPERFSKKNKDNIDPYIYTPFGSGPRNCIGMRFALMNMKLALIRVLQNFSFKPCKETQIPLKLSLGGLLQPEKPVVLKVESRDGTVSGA", "assay": "in vitro", "details": "microsomes"}, "[8]": {"assay": "In vitro liver microsome stability assay, mouse", "type": "in vitro ADME", "details": "liver microsomes, read-out: T1/2 Mouse", "method": "as §2"}, "[9]": {"molecular_target": "CYP 2D6 (Homo sapiens (Human), UniProt P10635)", "sequence (P10635 whole entry)": "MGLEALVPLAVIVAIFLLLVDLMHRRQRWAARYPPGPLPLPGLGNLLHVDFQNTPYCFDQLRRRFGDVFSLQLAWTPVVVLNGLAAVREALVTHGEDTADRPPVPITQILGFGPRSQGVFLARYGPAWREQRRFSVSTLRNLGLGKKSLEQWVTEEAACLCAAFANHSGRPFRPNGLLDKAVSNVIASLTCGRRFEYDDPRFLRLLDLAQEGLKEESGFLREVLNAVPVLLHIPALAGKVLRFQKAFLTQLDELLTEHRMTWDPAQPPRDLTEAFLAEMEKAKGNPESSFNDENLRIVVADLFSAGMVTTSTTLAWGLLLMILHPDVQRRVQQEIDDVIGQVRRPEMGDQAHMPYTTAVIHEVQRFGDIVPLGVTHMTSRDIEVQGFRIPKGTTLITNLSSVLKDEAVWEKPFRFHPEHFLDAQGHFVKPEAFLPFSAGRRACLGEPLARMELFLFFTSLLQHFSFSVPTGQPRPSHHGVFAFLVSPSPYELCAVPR", "assay": "CYP enzyme inhibitory activity IC50 assay (cocktail method), 2D6", "type": "in vitro ADME", "details": "microsomes 0.1 mg/mL, probe Dextromethorphan", "from_the_text": "as §1"}, "[10]": {"assay": "In vivo pharmacokinetic evaluation in mice", "design": "clearance: unit not given here", "details": "for AUC(0-t): read-out: Area under the curve AUC0-7 h; for half-life: read-out: Half-life T1/2 (converted); for Cmax: read-out: Peak concentration Cmax", "from_the_text": "The vehicle used in the experiment was: DMSO: Solutol: PBS=5%:25%:70% (v/v/v). Preparation method: The required compound was weighed accurately, added with a certain volume of DMSO in a certain proportion, vortex-mixed until completely dissolved, then added successively with Solutol and PBS according to the above proportion, and mixed well. The vehicles used in the intravenous (iv) administration group and oral (po) administration group were the same vehicles in the experiment. The intravenous dose was 2 mpk and the oral dose was 5 mpk. Experimental blood collection time points: IV group: 0.083, 0.25, 0.5, 1, 2, 4, 7, 24 h. PO group: 200 μL of whole blood was collected from jugular vein at each time point of 0.25, 0.5, 1, 2, 4, 7 and 24 h, anticoagulated with EDTA-K2, and immediately centrifuged at 4000 rpm for 5 minutes at 4° C. The supernatant was taken and the samples were frozen and stored in a refrigerator at −80° C. Processing of plasma samples: the sample was precipitated with ACN/MeOH (1:1, v/v) precipitant containing internal standard, then centrifuged at 14000 rpm for 5 minutes. The supernatant was taken into LC-MS/MS (AB Triple Quard 5500) for analysis to obtain plasma concentrations, and parameters were calculated by the non-compartmental model of Winnolin 8.1 version."}, "[11]": {"assay": "In vitro liver microsome stability assay, rat", "type": "in vitro ADME", "details": "liver microsomes, read-out: T1/2 Rat", "method": "as §2"}, "[12]": {"molecular_target": "human plasma Vanin-1 (Homo sapiens (Human), UniProt O95497)", "sequence (O95497 22-513)": "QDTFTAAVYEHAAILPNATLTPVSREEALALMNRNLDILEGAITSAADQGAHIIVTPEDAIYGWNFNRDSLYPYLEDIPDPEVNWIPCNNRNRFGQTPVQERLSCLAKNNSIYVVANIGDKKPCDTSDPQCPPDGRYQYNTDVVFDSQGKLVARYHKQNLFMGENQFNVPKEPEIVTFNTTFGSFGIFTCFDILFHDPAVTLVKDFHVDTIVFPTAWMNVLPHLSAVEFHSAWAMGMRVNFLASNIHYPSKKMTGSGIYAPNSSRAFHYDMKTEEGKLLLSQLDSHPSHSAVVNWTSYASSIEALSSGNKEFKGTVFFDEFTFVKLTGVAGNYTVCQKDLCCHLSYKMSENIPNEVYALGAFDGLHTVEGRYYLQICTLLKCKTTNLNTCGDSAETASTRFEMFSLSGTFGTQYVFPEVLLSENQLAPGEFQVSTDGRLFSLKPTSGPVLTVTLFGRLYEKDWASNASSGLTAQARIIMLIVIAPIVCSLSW", "assay": "Human plasma Vanin-1 enzyme activity inhibition assay", "type": "biochemical", "details": "100-fold diluted human plasma, substrate 25 μM, reading at 30th minute; read-out: hPlasma IC50"}, "[13]": {"details": "mouse, plasma, 2 mg/kg, intravenous injection, 2 mpk"}, "[14]": {"details": "mouse, plasma, po, 5 mg/kg, intragastric administration, 5 mpk"}}, "note": "Like-named read-outs stand apart in the source and are kept apart here."}
{"smiles": "CC(=O)N(C)[C@H]1CCN(C(=O)c2cnc(N[C@H](C)c3ccc(C(F)(F)F)cc3F)nc2)C1", "note": "[Compound 41-P2]", "values": [{"measurement": "IC50", "setting": "[1]", "result": "> 50", "unit": "µM"}, {"measurement": "liver microsome stability", "setting": "[2]", "result": "remarkable stability"}, {"measurement": "IC50", "setting": "[3]", "result": "> 50", "unit": "µM"}, {"measurement": "half-life at 1 μM", "setting": "[4]", "result": "> 4.66", "unit": "h"}, {"measurement": "inhibitory effect on the tested CYP enzymes", "setting": "[5]", "result": "basically no inhibitory effect"}, {"measurement": "IC50", "setting": "[6]", "result": 45.6, "unit": "µM"}, {"measurement": "IC50 at 10 min", "setting": "[7]", "result": "> 50", "unit": "µM"}, {"measurement": "half-life at 1 μM", "setting": "[8]", "result": 1.65, "unit": "h"}, {"measurement": "IC50", "setting": "[9]", "result": "> 50", "unit": "µM"}, {"measurement": "Area under the curve AUC0-7 h", "setting": "[10]; intragastric administration, 5 mpk", "result": 10656.5, "unit": "ng·h/mL"}, {"measurement": "AUC(0-t)", "setting": "[10]; [13]", "result": 4960, "unit": "ng·h/mL"}, {"measurement": "clearance", "setting": "[10]; mouse, plasma, 2 mg/kg, intravenous injection, 2 mpk, read-out: Clearance rate CL (converted)", "result": 0.112}, {"measurement": "Vd", "setting": "[10]; mouse, plasma, 2 mg/kg, intravenous injection, 2 mpk, read-out: Distributed solvent Vd", "result": 1.26, "unit": "L/kg"}, {"measurement": "half-life", "setting": "[10]; [13]", "result": 2.8, "unit": "h"}, {"measurement": "Cmax", "setting": "[10]; [13]", "result": 2140, "unit": "ng/mL"}, {"measurement": "bioavailability", "setting": "[10]; mouse, plasma, oral, intragastric administration 5 mpk vs intravenous 2 mpk, read-out: Bioavailability F %", "result": 86, "unit": "%"}, {"measurement": "AUC(0-t)", "setting": "[10]; [14]", "result": 10700, "unit": "ng·h/mL"}, {"measurement": "half-life", "setting": "[10]; [14]", "result": 5.6, "unit": "h"}, {"measurement": "Cmax", "setting": "[10]; [14]", "result": 1540, "unit": "ng/mL"}, {"measurement": "half-life at 1 μM", "setting": "[11]", "result": 3.31, "unit": "h"}]}
{"smiles": "CC(Nc1ncc(C(=O)N2CCC3(CCOCC3)C2)cn1)c1ccccc1", "note": "(stereo not shown) [Compound 6]", "values": [{"measurement": "IC50", "setting": "[12]", "result": 0.0016, "unit": "µM"}]}
{"smiles": "O=C(c1cnc(NCc2ccc(F)cc2F)nc1)N1CCC2(CCOCC2)C1", "note": "[Compound 12]", "values": [{"measurement": "IC50", "setting": "[12]", "result": 0.0079, "unit": "µM"}]}
